Data as given in PubChem BioAssay (NCI).
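Method: 48-hour compound exposure of cells in 96-well plates, five concentrations, linear interpolation of endpoints. At the GI50, growth is halved. At the TGI there is no net growth.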

How the values were obtained:
Test in all cases: DTP human tumour cell line panel, 48 h
MDA-MB-231 breast = tested on: MDA-MB-231 breast
MOLT-4 leukemia = tested on: MOLT-4 leukemia
HCC-2998 colon = tested on: HCC-2998 colon
SNB-19 CNS = tested on: SNB-19 CNS
HS 578T breast = tested on: HS 578T breast
NCI-H460 lung = tested on: NCI-H460 lung
HT29 colon = tested on: HT29 colon
HOP-92 NSCLC = tested on: HOP-92 NSCLC
DU-145 prostate = tested on: DU-145 prostate
NCI-H23 lung = tested on: NCI-H23 lung
CAKI-1 renal = tested on: CAKI-1 renal
SF-539 CNS = tested on: SF-539 CNS
UACC-257 melanoma = tested on: UACC-257 melanoma
MCF7 breast = tested on: MCF7 breast
U251 CNS = tested on: U251 CNS
SW-620 colon = tested on: SW-620 colon
UO-31 renal = tested on: UO-31 renal
OVCAR-8 ovarian = tested on: OVCAR-8 ovarian
SN12C renal = tested on: SN12C renal
HCT-15 colon = tested on: HCT-15 colon
SNB-75 CNS = tested on: SNB-75 CNS
A498 renal = tested on: A498 renal
COLO 205 colon = tested on: COLO 205 colon
MALME-3M melanoma = tested on: MALME-3M melanoma
HOP-62 NSCLC = tested on: HOP-62 NSCLC
IGROV1 ovarian = tested on: IGROV1 ovarian
OVCAR-4 ovarian = tested on: OVCAR-4 ovarian
RPMI-8226 leukemia = tested on: RPMI-8226 leukemia
UACC-62 melanoma = tested on: UACC-62 melanoma
SK-MEL-2 melanoma = tested on: SK-MEL-2 melanoma
A549 NSCLC = tested on: A549 NSCLC
PC-3 prostate = tested on: PC-3 prostate
NCI/ADR-RES ovarian = tested on: NCI/ADR-RES ovarian
SK-MEL-5 melanoma = tested on: SK-MEL-5 melanoma
BT-549 breast = tested on: BT-549 breast
K-562 leukemia = tested on: K-562 leukemia
LOX IMVI melanoma = tested on: LOX IMVI melanoma
SF-295 CNS = tested on: SF-295 CNS
M14 melanoma = tested on: M14 melanoma
TK-10 renal = tested on: TK-10 renal
SF-268 CNS = tested on: SF-268 CNS
SR leukemia = tested on: SR leukemia
OVCAR-3 ovarian = tested on: OVCAR-3 ovarian
SK-MEL-28 melanoma = tested on: SK-MEL-28 melanoma
HCT-116 colon = tested on: HCT-116 colon
NCI-H522 lung = tested on: NCI-H522 lung
SK-OV-3 ovarian = tested on: SK-OV-3 ovarian
NCI-H226 lung = tested on: NCI-H226 lung
786-0 renal = tested on: 786-0 renal
OVCAR-5 ovarian = tested on: OVCAR-5 ovarian
EKVX NSCLC = tested on: EKVX NSCLC
HL-60(TB) leukemia = tested on: HL-60(TB) leukemia
KM12 colon = tested on: KM12 colon
CCRF-CEM leukemia = tested on: CCRF-CEM leukemia
ACHN renal = tested on: ACHN renal
RXF 393 renal = tested on: RXF 393 renal
T-47D breast = tested on: T-47D breast
MDA-MB-435 = tested on: MDA-MB-435

## COc1ccc(C(=O)c2cc(C)c(OC)c(C)c2)c(OC)c1NC(C)=O
MDA-MB-231 breast
  GI50: 0.363 µM
  TGI: > 100 µM
MOLT-4 leukemia
  GI50: 3.13 µM
  TGI: > 100 µM
HCC-2998 colon
  GI50: 0.31 µM
  TGI: > 100 µM
SNB-19 CNS
  GI50: 0.265 µM
  TGI: > 100 µM
HS 578T breast
  GI50: 0.0715 µM
  TGI: > 100 µM
NCI-H460 lung
  GI50: 0.3 µM
  TGI: > 33.9 µM
HT29 colon
  GI50: 0.468 µM
  TGI: > 100 µM
HOP-92 NSCLC
  GI50: 1.02 µM
  TGI: > 100 µM
DU-145 prostate
  GI50: 0.0483 µM
  TGI: > 100 µM
NCI-H23 lung
  GI50: 0.369 µM
  TGI: > 100 µM
CAKI-1 renal
  GI50: 0.0639 µM
  TGI: > 100 µM
SF-539 CNS
  GI50: 0.214 µM
  TGI: 0.848 µM
UACC-257 melanoma
  GI50: > 100 µM
  TGI: > 100 µM
MCF7 breast
  GI50: 0.491 µM
  TGI: > 100 µM
U251 CNS
  GI50: 0.353 µM
  TGI: > 100 µM
SW-620 colon
  GI50: 0.19 µM
  TGI: > 100 µM
UO-31 renal
  GI50: 0.167 µM
  TGI: > 63.1 µM
OVCAR-8 ovarian
  GI50: 0.419 µM
  TGI: > 100 µM
SN12C renal
  GI50: 0.448 µM
  TGI: > 100 µM
HCT-15 colon
  GI50: 0.452 µM
  TGI: > 100 µM
SNB-75 CNS
  GI50: 0.0425 µM
  TGI: > 100 µM
A498 renal
  GI50: 0.0228 µM
  TGI: 0.0795 µM
COLO 205 colon
  GI50: 0.299 µM
  TGI: 1.28 µM
MALME-3M melanoma
  GI50: 1.17 µM
  TGI: > 100 µM
HOP-62 NSCLC
  GI50: 0.239 µM
  TGI: > 100 µM
IGROV1 ovarian
  GI50: 0.529 µM
  TGI: > 100 µM
OVCAR-4 ovarian
  GI50: 7.68 µM
  TGI: > 100 µM
RPMI-8226 leukemia
  GI50: 0.785 µM
  TGI: > 100 µM
UACC-62 melanoma
  GI50: 0.333 µM
  TGI: > 100 µM
SK-MEL-2 melanoma
  GI50: > 100 µM
  TGI: > 100 µM
A549 NSCLC
  GI50: 0.389 µM
  TGI: > 100 µM
PC-3 prostate
  GI50: 0.0776 µM
  TGI: > 100 µM
NCI/ADR-RES ovarian
  GI50: 0.131 µM
  TGI: 0.573 µM
SK-MEL-5 melanoma
  GI50: 0.364 µM
  TGI: 7.15 µM
BT-549 breast
  GI50: 0.258 µM
  TGI: > 100 µM
K-562 leukemia
  GI50: 0.937 µM
  TGI: > 100 µM
LOX IMVI melanoma
  GI50: 0.526 µM
  TGI: > 100 µM
SF-295 CNS
  GI50: 0.046 µM
  TGI: > 100 µM
M14 melanoma
  GI50: 0.15 µM
  TGI: > 100 µM
TK-10 renal
  GI50: > 100 µM
  TGI: > 100 µM
SF-268 CNS
  GI50: 1.82 µM
  TGI: > 100 µM
SR leukemia
  GI50: 0.307 µM
  TGI: > 100 µM
OVCAR-3 ovarian
  GI50: 0.483 µM
SK-MEL-28 melanoma
  GI50: 0.504 µM
  TGI: > 100 µM
HCT-116 colon
  GI50: 0.439 µM
  TGI: > 100 µM
NCI-H522 lung
  GI50: 0.157 µM
SK-OV-3 ovarian
  GI50: 0.0674 µM
  TGI: > 100 µM
NCI-H226 lung
  GI50: 0.102 µM
  TGI: 1.58 µM
786-0 renal
  GI50: 0.0562 µM
  TGI: > 100 µM
OVCAR-5 ovarian
  GI50: 0.191 µM
  TGI: > 100 µM
EKVX NSCLC
  GI50: 0.251 µM
  TGI: > 100 µM
HL-60(TB) leukemia
  GI50: 0.309 µM
  TGI: 1.37 µM
KM12 colon
  GI50: 0.153 µM
  TGI: > 100 µM
CCRF-CEM leukemia
  GI50: 2.4 µM
  TGI: > 100 µM
ACHN renal
  GI50: 0.0944 µM
  TGI: > 100 µM

## CC1(C)COC(c2ccc(CC(Cc3ccc(C4(C(C)(C)C)OCC(C)(C)CO4)cc3)C(=O)O)cc2)(C(C)(C)C)OC1
SNB-19 CNS
  GI50: 4.14 µM
  TGI: > 100 µM
U251 CNS
  GI50: 3.03 µM
  TGI: > 100 µM
MALME-3M melanoma
  GI50: > 100 µM
  TGI: > 100 µM
RXF 393 renal
  GI50: 2.86 µM
  TGI: > 100 µM
A549 NSCLC
  GI50: 2.06 µM
  TGI: > 100 µM
M14 melanoma
  GI50: > 100 µM
  TGI: > 100 µM
SK-MEL-28 melanoma
  GI50: > 100 µM
  TGI: > 100 µM
ACHN renal
  GI50: 2.8 µM
  TGI: > 100 µM

## [N-]=[N+]=NCCCn1c2c(c3ccc([N+](=O)[O-])cc3c1=O)C(=O)c1cc(Br)ccc1-2
MDA-MB-231 breast
  GI50: > 100 µM
  TGI: > 100 µM
MOLT-4 leukemia
  GI50: 1.15 µM
  TGI: > 100 µM
HCC-2998 colon
  GI50: > 100 µM
  TGI: > 100 µM
SNB-19 CNS
  GI50: > 100 µM
  TGI: > 100 µM
HS 578T breast
  GI50: > 100 µM
  TGI: > 100 µM
NCI-H460 lung
  GI50: 8.35 µM
  TGI: > 100 µM
HT29 colon
  GI50: > 100 µM
  TGI: > 100 µM
HOP-92 NSCLC
  GI50: 37.7 µM
  TGI: > 100 µM
DU-145 prostate
  GI50: 14.9 µM
  TGI: > 100 µM
NCI-H23 lung
  GI50: > 100 µM
  TGI: > 100 µM
CAKI-1 renal
  GI50: 0.887 µM
  TGI: > 100 µM
SF-539 CNS
  GI50: > 100 µM
  TGI: > 100 µM
UACC-257 melanoma
  GI50: > 100 µM
  TGI: > 100 µM
MCF7 breast
  GI50: 8.15 µM
  TGI: > 100 µM
U251 CNS
  GI50: 45.8 µM
  TGI: > 100 µM
UO-31 renal
  GI50: > 100 µM
  TGI: > 100 µM
OVCAR-8 ovarian
  GI50: > 100 µM
  TGI: > 100 µM
SN12C renal
  GI50: > 100 µM
  TGI: > 100 µM
HCT-15 colon
  GI50: > 100 µM
  TGI: > 100 µM
COLO 205 colon
  GI50: > 100 µM
  TGI: > 100 µM
MALME-3M melanoma
  GI50: > 100 µM
  TGI: > 100 µM
HOP-62 NSCLC
  GI50: 56.1 µM
  TGI: > 100 µM
IGROV1 ovarian
  GI50: > 100 µM
  TGI: > 100 µM
OVCAR-4 ovarian
  GI50: > 100 µM
  TGI: > 100 µM
RPMI-8226 leukemia
  GI50: > 100 µM
  TGI: > 100 µM
RXF 393 renal
  GI50: > 100 µM
  TGI: > 100 µM
UACC-62 melanoma
  GI50: > 100 µM
  TGI: > 100 µM
SK-MEL-2 melanoma
  GI50: > 100 µM
  TGI: > 100 µM
A549 NSCLC
  GI50: > 100 µM
  TGI: > 100 µM
PC-3 prostate
  GI50: > 100 µM
  TGI: > 100 µM
NCI/ADR-RES ovarian
  GI50: > 100 µM
  TGI: > 100 µM
SK-MEL-5 melanoma
  GI50: > 100 µM
  TGI: > 100 µM
BT-549 breast
  GI50: > 100 µM
  TGI: > 100 µM
K-562 leukemia
  GI50: > 100 µM
  TGI: > 100 µM
LOX IMVI melanoma
  GI50: > 100 µM
  TGI: > 100 µM
SF-295 CNS
  GI50: 1.66 µM
  TGI: > 100 µM
M14 melanoma
  GI50: 3.02 µM
  TGI: > 100 µM
TK-10 renal
  GI50: > 100 µM
  TGI: > 100 µM
SF-268 CNS
  GI50: > 100 µM
  TGI: > 100 µM
OVCAR-3 ovarian
  GI50: > 100 µM
  TGI: > 100 µM
SK-MEL-28 melanoma
  GI50: > 100 µM
  TGI: > 100 µM
HCT-116 colon
  GI50: 3.01 µM
  TGI: > 100 µM
NCI-H522 lung
  GI50: > 100 µM
  TGI: > 100 µM
SK-OV-3 ovarian
  GI50: > 100 µM
  TGI: > 100 µM
NCI-H226 lung
  GI50: > 100 µM
  TGI: > 100 µM
786-0 renal
  GI50: 42.4 µM
  TGI: > 100 µM
OVCAR-5 ovarian
  GI50: > 100 µM
  TGI: > 100 µM
EKVX NSCLC
  GI50: > 100 µM
  TGI: > 100 µM
KM12 colon
  GI50: > 100 µM
  TGI: > 100 µM
T-47D breast
  GI50: > 100 µM
  TGI: > 100 µM
MDA-MB-435
  GI50: > 100 µM
  TGI: > 100 µM
CCRF-CEM leukemia
  GI50: 0.545 µM
  TGI: > 100 µM
ACHN renal
  GI50: > 100 µM
  TGI: > 100 µM
